In patent US12398121B2 (Nuvation Bio Inc., priority 2018, dated 2025) one finds IC50 data, which are given here for eleven molecules.

The structures appear in SMILES notation. A value given as a limit tells only on which side of the number the result lay.

The first assay has as its system HT-29 cells. The assay is described as follows: Cell proliferation assay (CellTiter Glo), HT-29. Format: cell-based. To be noted: Homo sapiens, HT-29, 72 h, read-out: HT-29 IC50. As to the method:
(§1) IC50 values were calculated and graphed using the model “log(inhibitor) vs. response—Variable slope” included in GraphPad Prism 5 (San Diego, CA). The Ki values were further calculated using the equation below where [L] was the radioligand concentration (1 nM) using in this study. Kd value was 0.332 nM. Ki=IC50/(1+[L]/Kd) c. AR transactivation: Human AR cloned into a CMV vector backbone was used for the transactivation study. HEK-293 cells were plated at 80,000 cells per well of a 24 well plate in DME+5% csFBS. Twenty four hours later, the cells were transfected using Lipofectamine (Invitrogen, Carlsbad, CA) with 0.25 μg GRE-LUC, 0.01 μg CMV-LUC (renilla luciferase) and 25 ng of the AR in OPTIMEM medium. The cells were treated 24 hrs after transfection with various ligands (10^−12 to 10^−5 M final concentrations) and luciferase assay were performed 48 hours after transfection. Firefly values were normalized to renilla luciferase values and the values were represented as relative light units (RLU). Agonist and antagonist assays for the test article were performed in the absence and in the combination with 0.1 nM R1881, respectively. Data were represented as EC50 (for agonists) and IC50 (for antagonists) obtained from four parameter logistics curve. Cell culture and proliferation assays: LNCaP, PC-3, 22RV1, MCF-7, HT-29, and HCT-116 cells were procured from American Type Culture Collection (ATCC). Cells were cultured in medium recommended by the ATCC. Cell culture medium was obtained from Fisher scientific (Waltham, MA) and serum was obtained from Hyclone (San Angelo, TX).
Cells were plated at varying density in the respective growth medium in 96 well plates. 24 hr later, cells were treated, in triplicate or quadruplicate, with test articles prepared in a range of concentrations by series dilution of DMSO stock solutions in growth medium and incubated for three to seven days. The number of viable 22RV1 and HT-29 cells was measured using CellTiter Glo assay (CTG, Promega, Madison, WI) after three days of treatment. The other types of cancer cells were re-treated at three or four days and the number of viable cells was measured using CTG assay after a total treatment time of six or seven days. Cell viability data were plotted using GraphPad Prism (GraphPad Software, Inc., San Diego, CA). In addition, a nonlinear regression model with a sigmoidal dose response and variable slope within GraphPad Prism was used to calculate the IC50 value of individual test articles. Additional cell proliferation assays: Other cancer cell lines are tested in a cell proliferation assay. For example, SK-OV-3 or OVCAR3 ovarian cancer cells are tested. Cells are cultured in medium recommended by the supplier (e.g., ATCC or JCRB Cell Bank), at 37° C. in a 5% CO2 environment. For the proliferation assay, cells are plated in the growth medium in 96 well plates. Seeding density is adjusted according to the cell type. 24 hr later, cells are treated, in triplicate or quadruplicate, with test articles prepared in a range of concentrations by series dilution of DMSO stock solutions in growth medium, and typically incubated for three to seven days, with test article-containing medium replaced after three or four days. The number of viable cells is measured using CellTiter Glo assay (CTG, Promega, Madison, WI) or similar. Cell viability data are plotted using GraphPad Prism (GraphPad Software, Inc., San Diego, CA). In addition, a nonlinear regression model with a sigmoidal dose response and variable slope within GraphPad Prism is used to calculate the IC50 value of individual test articles. Similarly, HEK-293 and HeLa calls can also be tested by methods known in the art. • f. Nuclear translocation: LNCaP cells are plated on coverslips in 24 well plates in growth medium. Twenty-four hours after plating, medium is changed to RPMI+1% csFBS and the cells are maintained in this medium for two days. Medium is replaced again and the cells are treated. […]
On the technique in general: Cellular ATP, detected with luciferase, serves as a proxy for viable cell number.
One may read the IC50 as the concentration needed to halve the response being measured. Take `CC(O)(CS(=O)(=O)c1ccc(NCCn2cc(CN3CCN(C(=O)c4cc(Cc5n[nH]c(=O)c6ccccc56)ccc4F)CC3)nn2)cc1)C(=O)Nc1ccc(C#N)c(C(F)(F)F)c1` (stereo in doubt) [Compound 1.97, (S)-N-(4-cyano-3-(trifluoromethyl)phenyl)-3-(4-(2-(4-((4-(2-fluoro-5-((4-oxo-3,4-dihydrophthalazin-1-yl)methyl)benzoyl)piperazin-1-yl)methyl)-1H-1,2,3-triazol-1-yl)ethylamino)phenylsulfonyl)-2-hydroxy-2-methylpropanamide]: the IC50 was above 30 µM. Consider `CC1(C)C(=O)N(c2ccc(C#N)c(C(F)(F)F)c2)C(=S)N1c1ccc(C(=O)NCCCCCC(=O)N2CCN(C(=O)c3cc(Cc4n[nH]c(=O)c5ccccc45)ccc3F)CC2)c(F)c1` [Compound 1.1, 4-(3-(4-cyano-3-(trifluoromethyl)phenyl)-5,5-dimethyl-4-oxo-2-thioxoimidazolidin-1-yl)-2-fluoro-N-(6-(4-(2-fluoro-5-((4-oxo-3,4-dihydrophthalazin-1-yl)methyl)benzoyl)piperazin-1-yl)-6-oxohexyl)benzamide], for which the IC50 came to 0.3 µM. The same measure, in the same setting: under `C[C@]12CCC(=O)C[C@@H]1CC[C@@H]1[C@@H]2CC[C@]2(C)[C@@H](OCCCCCC(=O)N3CCN(C(=O)c4cc(Cc5n[nH]c(=O)c6ccccc56)ccc4F)CC3)CC[C@@H]12` [Compound 1.2, 4-(3-(4-(6-(((5S,8R,9S,10S,13S,14S,17S)-10,13-dimethyl-3-oxohexadecahydro-1H-cyclopenta[a]phenanthren-17-yl)oxy)hexanoyl)piperazine-1-carbonyl)-4-fluorobenzyl)phthalazin-1(2H)-one] stands above 10 µM; under `CC1(C)C(=O)N(c2ccc(C#N)c(C(F)(F)F)c2)C(=S)N1c1ccc(C(=O)NCCCCCCNCc2ccc(-c3[nH]c4cc(F)cc5c4c3CCNC5=O)cc2)c(F)c1` [Compound 1.5, 4-(3-(4-cyano-3-(trifluoromethyl)phenyl)-5,5-dimethyl-4-oxo-2-thioxoimidazolidin-1-yl)-2-fluoro-N-(6-((4-(8-fluoro-1-oxo-2,3,4,6-tetrahydro-1H-azepino[5,4,3-cd]indol-5-yl)benzyl)amino)hexyl)benzamide], 5 µM. On the same count and under the same terms, in the case of `C[C@](O)(CS(=O)(=O)c1ccc(NCCCCCC(=O)N2CCN(C(=O)c3cc(Cc4n[nH]c(=O)c5ccccc45)ccc3F)CC2)cc1)C(=O)Nc1ccc(C#N)c(C(F)(F)F)c1` [Compound 1.68, (R)-N-(4-cyano-3-(trifluoromethyl)phenyl)-3-(4-(6-(4-(2-fluoro-5-((4-oxo-3,4-dihydrophthalazin-1-yl)methyl)benzoyl)piperazin-1-yl)-6-oxohexylamino)phenylsulfonyl)-2-hydroxy-2-methylpropanamide] it was above 10 µM.

On to `C[C@](O)(COc1ccc(NCCCCCC(=O)N2CCN(C(=O)c3cc(Cc4n[nH]c(=O)c5ccccc45)ccc3F)CC2)cc1)C(=O)Nc1ccc(C#N)c(C(F)(F)F)c1` [Compound 1.83, (S)-N-(4-cyano-3-(trifluoromethyl)phenyl)-3-(4-(6-(4-(2-fluoro-5-((4-oxo-3,4-dihydrophthalazin-1-yl)methyl)benzoyl)piperazin-1-yl)-6-oxohexylamino)phenoxy)-2-hydroxy-2-methylpropanamide], for which the IC50 is above 10 µM.

Still in this assay, the particulars now being: Homo sapiens, HT-29, 72 h; cell growth inhibition, three days of treatment; read-out: HT-29 IC50.
In the case of `C[C@]12CCC(=O)C[C@@H]1CC[C@@H]1[C@@H]2CC[C@]2(C)[C@@H](OCCOCC(=O)N3CCN(C(=O)c4cc(Cc5n[nH]c(=O)c6ccccc56)ccc4F)CC3)CC[C@@H]12` [Compound 1.104, 4-(3-(4-(2-(2-((5S,8R,9S,10S,13S,14S,17S)-10,13-dimethyl-3-oxohexadeca hydro-1H-cyclopenta[a]phenanthren-17-yloxy)ethoxy)acetyl)piperazine-1-carbonyl)-4-fluorobenzyl)phthalazin-1(2H)-one], the IC50 was found to be 9.3 µM. Still for that read-out and setting: under `C[C@]12CCC(=O)C[C@@H]1CC[C@@H]1[C@@H]2CC[C@]2(C)[C@@H](OCC(=O)N3CCN(C(=O)c4cc(Cc5n[nH]c(=O)c6ccccc56)ccc4F)CC3)CC[C@@H]12` [Compound 1.110, 4-(3-(4-(2-((5S,8R,9S,10S,13S,14S,17S)-10,13-dimethyl-3-oxohexadecahydro-1H-cyclopenta[a]phenanthren-17-yloxy)acetyl)piperazine-1-carbonyl)-4-fluorobenzyl)phthalazin-1(2H)-one] stands 9.5 µM.

For the molecule `O=C(c1ccc(OCCN2CCN(C(=O)c3cc(Cc4n[nH]c(=O)c5ccccc45)ccc3F)CC2)cc1)c1c(-c2ccc(O)cc2)sc2cc(O)ccc12` [Compound 2.13, 4-(4-fluoro-3-(4-(2-(4-(6-hydroxy-2-(4-hydroxyphenyl)benzo[b]thiophene-3-carbonyl)phenoxy)ethyl)piperazine-1-carbonyl)benzyl)phthalazin-1(2H)-one], the IC50 stood at 6 µM. Consider `CCC(=C(c1ccc(O)cc1)c1ccc(OCCN2CCN(C(=O)c3cc(Cc4n[nH]c(=O)c5ccccc45)ccc3F)CC2)cc1)c1ccccc1` [Compound 2.14, 4-(4-fluoro-3-(4-(2-(4-(1-(4-hydroxyphenyl)-2-phenylbut-1-enyl)phenoxy)ethyl)piperazine-1-carbonyl)benzyl)pthalazin-1(2H)-one], for which the IC50 was above 30 µM.

A further assay relates to MCF-7 cells. The assay can be described thus: Cell proliferation assay (CellTiter Glo), MCF-7. To be noted: Homo sapiens, MCF7, 168 h; cell growth inhibition, six or seven days total treatment. Format: cell-based. As to the method: as §1
Cells were plated at varying density in the respective growth medium in 96 well plates. […] The number of viable 22RV1 and HT-29 cells was measured using CellTiter Glo assay (CTG, Promega, Madison, WI) after three days of treatment. The other types of cancer cells were re-treated at three or four days and the number of viable cells was measured using CTG assay after a total treatment time of six or seven days. […] The number of viable cells is measured using CellTiter Glo assay (CTG, Promega, Madison, WI) or similar. […]
With `CN(CCCCCC(=O)N1CCN(C(=O)c2cc(Cc3n[nH]c(=O)c4ccccc34)ccc2F)CC1)CCOc1ccc(C(=O)c2c(-c3ccc(O)cc3)sc3cc(O)ccc23)cc1` [Compound 2.4, 4-(4-fluoro-3-(4-(6-((2-(4-(6-hydroxy-2-(4-hydroxyphenyl)benzo[b]thiophene-3-carbonyl)phenoxy)ethyl)(methyl)amino)hexanoyl)piperazine-1-carbonyl)benzyl)phthalazin-1(2H)-one], the IC50 is 11 µM.

On to `O=C(c1ccc(OCCN2CCN(C(=O)c3cc(Cc4n[nH]c(=O)c5ccccc45)ccc3F)CC2)cc1)c1c(-c2ccc(O)cc2)sc2cc(O)ccc12` [Compound 2.13, 4-(4-fluoro-3-(4-(2-(4-(6-hydroxy-2-(4-hydroxyphenyl)benzo[b]thiophene-3-carbonyl)phenoxy)ethyl)piperazine-1-carbonyl)benzyl)phthalazin-1(2H)-one], for which the IC50 was 3.6 µM. As for `CCC(=C(c1ccc(O)cc1)c1ccc(OCCN2CCN(C(=O)c3cc(Cc4n[nH]c(=O)c5ccccc45)ccc3F)CC2)cc1)c1ccccc1` [Compound 2.14, 4-(4-fluoro-3-(4-(2-(4-(1-(4-hydroxyphenyl)-2-phenylbut-1-enyl)phenoxy)ethyl)piperazine-1-carbonyl)benzyl)pthalazin-1(2H)-one], the IC50 is 9.3 µM.
